Assay results reported in patent publication US20040005537A1, “Method of identifying toxic agents using differential gene expression” (priority 2000, published 2004).

Tested on: rat heart tissue
Assay: GENECALLING differential gene expression analysis after dosing of serotonin modulating agents
Assay type: in vivo, Sprague Dawley rats
Protocol: Control animals received sterile water or canola oil. The animals were sacrificed 24 hours following the last dose. Liver tissue was dissected from the animals, and total RNA was recovered from the dissected tissue. cDNA was prepared and the resulting samples were processed through using GENECALLING™ differential expression analysis as described in U.S. Pat. No. 5,871,697 and in Shimkets et al., Nature Biotechnology 17:798-803 (1999). The contents of these patents and publications are incorporated herein by reference in their entirety.
Thousands of gene fragments were initially found to be differentially expressed in rat heart tissue in response to serotonin modulating agents in. Genes fragments whose expression levels were modulated greater than ±1.5-fold were selected for further analysis.
Column 6 of Table 1, entitled “Function”, lists the type of classification assigned for the protein, based on its function. The 210 single nucleic acid sequences identified herein, are referred to herein as CARDIOTOX 1-210.

Structure (SMILES): CC(C)CC(N(C)C)C1(c2ccc(Cl)cc2)CCC1 (stereo not drawn) [sibutramine]
- Effects on Transcription Level: Novel gene fragment, 524 bp, 86% SI to mouse F-box protein FBX6b [AF176526] (CARDIOTOX 1): +1.3 fold
- Effects on Transcription Level: Novel gene fragment, 306 bp, 91% SI to mouse low density lipoprotein receptor related protein 4 [AB013874] (CARDIOTOX 2): −1.3 fold
- Effects on Transcription Level: Novel gene fragment, 540 bp, 97% SI to mouse skeletal muscle alpha-actin [X03766] (CARDIOTOX 3): −1.1 fold
- Effects on Transcription Level: Novel gene fragment, 80 bp (CARDIOTOX 4): −1.3 fold
- Effects on Transcription Level: Novel gene fragment, 957 bp, 99% SI to kidney injury associated moleculer HW036 [V80591] (CARDIOTOX 5): −1.0 fold
- Effects on Transcription Level: Novel gene fragment, 282 bp, 85% SI to human KIAA1515 protein [AB040948] (CARDIOTOX 6): −1.4 fold
- Effects on Transcription Level: Novel gene fragment, 405 bp, 88% SI to human 2-oxoglutarate dehydrogenase [D10523] (CARDIOTOX 7): −1.4 fold
- Effects on Transcription Level: UCP2 (CARDIOTOX 8, GenBank AB010743): −1.3 fold
- Effects on Transcription Level: Plasma membrane Ca2 + ATPase-isoform 1 (CARDIOTOX 9, GenBank J03753): +1.2 fold
- Effects on Transcription Level: Novel gene fragment, 242 bp, 97% SI to mouse HSP86 heat-shock protein [X16857] (CARDIOTOX 10): +1.4 fold
- Effects on Transcription Level: Novel gene fragment, 280 bp, 65% SI to human TRF1-interacting, ankyrin-related ADP-ribose polymerase [AF082556] (CARDIOTOX 11): +1.2 fold
- Effects on Transcription Level: Novel gene fragment, 348 bp, 88% SI to mouse Sec61 protein complex gamma subunit [U11027] (CARDIOTOX 12): +1.4 fold
- Effects on Transcription Level: Novel gene fragment 553 bp, 93% SI to mouse Sid329 [AB024984] (CARDIOTOX 13): +1.1 fold
- Effects on Transcription Level: Kruppel-like transcription factor (CARDIOTOX 14, GenBank AB020759): +1.1 fold
- Effects on Transcription Level: Ribosomal protein L3 (CARDIOTOX 15, GenBank X62166): +1.3 fold
- Effects on Transcription Level: Glucose-regulated protein (GRP) 75 (CARDIOTOX 16, GenBank S78556): +1.1 fold
- Effects on Transcription Level: Immunoglobulin heavy chain binding protein (BiP) (CARDIOTOX 17, GenBank M14050): −1.1 fold
- Effects on Transcription Level: Membrane-spannining proteoglycan NG2 (CARDIOTOX 18, GenBank X56541): −1.1 fold
- Effects on Transcription Level: Novel gene fragment, 1294 bp, 96% SI to mouse Sui 1 (elF) homolog [AF129888] (CARDIOTOX 19): +1.1 fold
- Effects on Transcription Level: Novel gene fragment, 723 bp, 85% SI to human translation initiation factor elF3 p40 subunit [U54559] (CARDIOTOX 20): −1.1 fold
- Effects on Transcription Level: Novel gene fragment, 1324 bp, 76% SI to human flavoprotein subunit of complex II [D30648] (CARDIOTOX 21): +1.4 fold
- Effects on Transcription Level: Novel gene fragment, 852 bp, 81% SI to human vacuolar proton-ATPase subunit M9.2 [Y15286] (CARDIOTOX 22): +1.2 fold
- Effects on Transcription Level: Novel gene fragment, 178 bp, 91% SI to mouse myosin light chain-2 isoform MLC-2a [S70785] (CARDIOTOX 23): +1.4 fold
- Effects on Transcription Level: Novel gene fragment, 167 bp, 90% SI to mouse Rab20 [X80332] (CARDIOTOX 24): +1.0 fold
- Effects on Transcription Level: Novel gene fragment, 1070 bp, 80% SI to human muscle-specific protein [AF249873] (CARDIOTOX 25): +1.2 fold
- Effects on Transcription Level: Novel gene fragment, 1143 bp, 82% SI to human sarcoma amplified sequence (SAS) [U01160] (CARDIOTOX 26): +1.3 fold
- Effects on Transcription Level: Novel gene fragment, 74 bp,75% SI to human secreted protein [X30160] (from patent database)/[X97578] (from patent database)/potential cytokine) (CARDIOTOX 27): −1.3 fold
- Effects on Transcription Level: Novel gene fragment, 408 bp, 90% SI to human CGI-07 protein [AF132941] (CARDIOTOX 28): −1.0 fold
- Effects on Transcription Level: Novel gene fragment, 618 bp, 95% SI to rat progression related cDNA, ZNPE-120 3′ end partial sequence [patent database X90805] (CARDIOTOX 29): +1.0 fold
- Effects on Transcription Level: Novel gene fragment, 717 bp (CARDIOTOX 30): +1.2 fold
- Effects on Transcription Level: Novel gene fragment, 546 bp (CARDIOTOX 31): +1.3 fold
- Effects on Transcription Level: Novel gene fragment, 920 bp, 91% SI to human HSPC061 [AF161546] (CARDIOTOX 32): +1.2 fold
- Effects on Transcription Level: Novel gene fragment, 203 bp, 92% SI to rabbit sarcoplasmic reticulum glycoprotein [J04480] (CARDIOTOX 33): −1.2 fold
- Effects on Transcription Level: Novel gene fragment, 178 bp, 68% SI to mouse IgG receptor (beta-Fc-gamma-RII)[M63159] (CARDIOTOX 34): +1.4 fold
- Effects on Transcription Level: Ribosomal protein L6 (CARDIOTOX 35, GenBank X87107): +1.4 fold
- Effects on Transcription Level: CAP2 protein (adenylyl cyclase-associated protein 2) (CARDIOTOX 36, GenBank U31935): +1.4 fold
- Effects on Transcription Level: Alpha-platelet-derived growth factor receptor (CARDIOTOX 37, GenBank M63837): −1.1 fold
- Effects on Transcription Level: Rab GD1 alpha protein (CARDIOTOX 38, GenBank X74402): −1.1 fold
- Effects on Transcription Level: PKC-zeta-interacting protein (CARDIOTOX 39, GenBank Y08355): −1.2 fold
- Effects on Transcription Level: ERK or MAP kinase (CARDIOTOX 40, GenBank X65198): +1.4 fold
- Effects on Transcription Level: Peroxisomal multifunctional enzyme type II (CARDIOTOX 41, GenBank U37486): +1.3 fold
- Effects on Transcription Level: HBP23 (heme-binding protein 23 kDa) (CARDIOTOX 42, GenBank D30035): +1.3 fold
- Effects on Transcription Level: Caveolae-associated protein (CARDIOTOX 43, GenBank U90725): −1.0 fold
- Effects on Transcription Level: Prenylated rab acceptor 1 (PRA1) (CARDIOTOX 44, GenBank AF025506): +1.4 fold
- Effects on Transcription Level: Novel gene fragment, 337 bp, 88% SI to rabbit cardiac ryanodine receptor (RyR-2)[U50465] (CARDIOTOX 45): −1.3 fold
- Effects on Transcription Level: Novel gene fragment, 81 bp, 85% SI to human titin [X90568] (CARDIOTOX 46): −1.3 fold
- Effects on Transcription Level: Novel gene fragment, 428 bp, 86% SI to human titin [X90568] (CARDIOTOX 47): −1.1 fold
- Effects on Transcription Level: Novel gene fragment, 374 bp, 88% SI to human titin [X90568] (CARDIOTOX 48): −1.2 fold
- Effects on Transcription Level: Novel gene fragment, 428 bp, 85% SI to human titin [90568] (CARDIOTOX 49): −1.3 fold
- Effects on Transcription Level: Novel gene fragment, 1216 bp, 93% SI to mouse mircotubule-associated protein (MAP) 1B protein [AF115776] (CARDIOTOX 50): −1.1 fold
- Effects on Transcription Level: Novel gene fragment, 1115 bp, 83% SI to human KIAA0549 protein [AB011121] (CARDIOTOX 51): −1.4 fold
- Effects on Transcription Level: Novel gene fragment, 153 bp (CARDIOTOX 52): −1.2 fold
- Effects on Transcription Level: Novel gene fragment, 89 bp, 93% SI to human putative glialblastoma cell differentiation-related protein (GBDR1) [AF068195] (CARDIOTOX 53): +1.4 fold
- Effects on Transcription Level: Rho-associated kinase beta (CARDIOTOX 54, GenBank U61266): −1.1 fold
- Effects on Transcription Level: Adenylate kinase 3 (CARDIOTOX 55, GenBank D13062): +1.4 fold
- Effects on Transcription Level: Amyloid beta-peptide binding protein (CARDIOTOX 56, GenBank AF049878): +1.3 fold
- Effects on Transcription Level: Mitochondrial adenine nuleotide translocator (CARDIOTOX 57, GenBank D12771): +1.4 fold
- Effects on Transcription Level: Novel gene fragment, 710 bp, 94% SI to mouse chromatin structural protein homolog Supt5 hp (Supt5 h)[U88539] (CARDIOTOX 58): +7.5 fold
- Effects on Transcription Level: Novel gene fragment, 186 bp, 66% SI to human N-acetylglucosaminyltransferase 1 (GlcNAc-TI)[M55621] (CARDIOTOX 60): −1.9 fold
- Effects on Transcription Level: Novel gene fragment, 238 bp, 95% SI to mouse MAP kinase-activated protein kinase 2 [X76850] (CARDIOTOX 61): −2.8 fold
- Effects on Transcription Level: Novel gene fragment, 173 bp, 70% SI to G protein-coupled receptor kinase GRK4 [X97568] (CARDIOTOX 62): −5.3 fold
- Effects on Transcription Level: Novel gene fragment, 133 bp, 77% SI to human apoptosis related protein hSARP3 [patent database: V19114] (CARDIOTOX 63): −2.0 fold
- Effects on Transcription Level: Novel gene fragment, 477 bp, 98% SI to peroxisomal phytanoyl-CoA hydroxylase (PHYH) [AF121345] (CARDIOTOX 64): +7.0 fold
- Effects on Transcription Level: Novel gene fragment, 413 bp, 95% SI to mouse dihydrolipoamide dehydrogenase (Dld) [U73445] (CARDIOTOX 65): +1.6 fold
- Effects on Transcription Level: Novel gene fragment, 726 bp, 76% SI to human succinate dehydrogenase flavoprotein subunit (SDH) [L21936] (CARDIOTOX 66): −3.0 fold
- Effects on Transcription Level: Novel gene fragment, 440 bp, 92% SI to mouse cytochrome c oxidase Vllc [X52940] (CARDIOTOX 67): +11.5 fold
- Effects on Transcription Level: Novel gene fragment, 276 bp, 80% SI to human titin [X90568] (CARDIOTOX 68): −6.6 fold
- Effects on Transcription Level: Novel gene fragment, 149 bp, 70% SI to human titin [X90568] (CARDIOTOX 69): −2.4 fold
- Effects on Transcription Level: Novel gene fragment, 467 bp, 94% SI to mouse gelsolin [J04953] (CARDIOTOX 70): −1.7 fold
